This passage reports IC50 results from patent US8476302B2, “α-ketoamide derivatives useful endothelial lipase inhibitors” (Janssen Pharmaceutica N.V., priority 2010, dated 2013).

One test addresses T1, Mouse EL (Mus musculus, UniProt Q9WVG5).
T1 construct: host or cells: not described for mouse EL
T1 sequence (Q9WVG5 21-500): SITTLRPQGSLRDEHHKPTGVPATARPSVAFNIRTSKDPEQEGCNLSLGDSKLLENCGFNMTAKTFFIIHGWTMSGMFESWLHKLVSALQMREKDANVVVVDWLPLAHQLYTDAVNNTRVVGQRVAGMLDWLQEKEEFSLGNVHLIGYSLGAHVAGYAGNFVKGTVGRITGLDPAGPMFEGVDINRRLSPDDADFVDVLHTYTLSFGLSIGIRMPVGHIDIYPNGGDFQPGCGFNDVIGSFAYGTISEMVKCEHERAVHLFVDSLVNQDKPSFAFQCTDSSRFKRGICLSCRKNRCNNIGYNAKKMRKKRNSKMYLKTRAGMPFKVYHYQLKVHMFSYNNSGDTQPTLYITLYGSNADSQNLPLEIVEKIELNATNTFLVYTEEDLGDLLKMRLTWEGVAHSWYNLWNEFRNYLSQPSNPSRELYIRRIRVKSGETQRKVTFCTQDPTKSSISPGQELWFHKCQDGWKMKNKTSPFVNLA
Put plainly: Endothelial Lipase Assay, cell surface lipase activity (mouse). The class given is cell-based. The note with it: PLA1 substrate 10 μM, fluorescence reaction rate, several values in a cell are repeat determinations. As for the experimental part: (§1) Endothelial Lipase Assay (Human/Mouse)
(§2) To assay for cell surface lipase activity, cells expressing human endothelial lipase (EL) or LPL were plated in CellBIND® 384-well plates (Corning, Lowell, Mass.) in 25 μL serum free medium at a density of 2000 cells/well. After 18-24 hours incubation at 37° C., the medium was removed and replaced with 15 μL assay buffer [Hank's Buffered Saline Solution with 25 mM HEPES pH 7.2] and 15 μL PLA1 for a final concentration of 10 μM using a Multidrop reagent dispenser. Fluorescence signal was monitored for 30 min at 37° C. on a Safire II plate reader in kinetic mode (60 cycles, kinetic interval: 30 seconds) with an excitation wavelength of 490 nm and an emission wavelength of 515 nm. Linear regression of the fluorescence intensity collected from 480 to 1500 seconds was used to calculate the reaction rate (the slope) and the slopes were used to calculate IC50 values where appropriate. The amount of BODIPY-labeled product generated was calculated at the 30 min time point as determined from standard curve analysis of purified BODIPY FL C5. In all studies using the inhibitor Ebelactone B, consistent results were obtained when it was dissolved as a stock in DMSO, immediately before use.

Test [1] has as its target T2, human endothelial lipase (EL) (Homo sapiens, UniProt Q9Y5X9).
T2 construct: host or cells: cells expressing human endothelial lipase
T2 sequence (Q9Y5X9 21-500): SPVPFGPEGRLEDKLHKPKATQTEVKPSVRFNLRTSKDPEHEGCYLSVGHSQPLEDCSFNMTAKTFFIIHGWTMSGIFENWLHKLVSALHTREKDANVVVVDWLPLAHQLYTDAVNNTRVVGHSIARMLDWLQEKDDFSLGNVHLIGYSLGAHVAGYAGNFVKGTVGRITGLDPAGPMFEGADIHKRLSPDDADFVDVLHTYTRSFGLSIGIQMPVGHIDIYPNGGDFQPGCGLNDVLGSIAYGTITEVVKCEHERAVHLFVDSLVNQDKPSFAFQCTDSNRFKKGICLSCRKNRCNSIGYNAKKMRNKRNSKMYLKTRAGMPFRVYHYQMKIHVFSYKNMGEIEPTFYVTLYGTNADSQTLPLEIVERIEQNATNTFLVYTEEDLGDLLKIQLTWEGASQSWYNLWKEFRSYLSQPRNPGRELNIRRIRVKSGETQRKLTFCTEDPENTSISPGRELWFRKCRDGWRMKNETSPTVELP
Put plainly: Endothelial Lipase Assay, cell surface lipase activity (human). The class given is cell-based. To be noted: cells expressing human EL, PLA1 substrate 10 μM, fluorescence reaction rate; several values in a cell are repeat determinations. As for the experimental part:
as §1, §2

Usually IC50 stands for the concentration that gives 50% inhibition. A low value points to greater potency. As for `O=C(CCCCCCc1ccccc1)C(=O)NCc1nnc(-c2ccc(OCc3cccc(F)c3)cc2)o1` [Compound 84], the IC50 against Mouse EL is 200 nM; in test [1], 235 nM. The matching figures for `O=C(CCCCCOc1cccc(F)c1)C(=O)NCc1nnc(-c2ccc(Oc3ccc(Cl)cc3)cc2)o1` [Compound 57]: 1100 nM and 3780 nM. Regarding `O=C(CCCCCCc1ccc2nc(Cl)ccc2c1)C(=O)NCc1nnc(-c2ccccc2)o1` [Compound 50], the concentration for half-maximal inhibition (IC50) at Mouse EL was found to be 267 nM; in test [1], 564 nM. `O=C(CCCCCCc1ccccc1)C(=O)NCc1nnc(-c2ccc(Cl)cc2)o1` [Compound 2]: the values for the IC50 (against Mouse EL; in test [1]) were 616 nM and 488 nM, respectively. For `COC(=O)c1cccc(COc2ccc(-c3nnc(CNC(=O)C(=O)CCCCCCc4ccc(F)nc4)s3)cc2)c1` [Compound 170] the same measures were 14 nM and 16 nM. On to `O=C(CCCCCOc1cccc(Cl)c1)C(=O)NCc1nnc(-c2ccc(OCc3ccccc3)cc2)o1` [Compound 96], for which the values for the IC50 (at Mouse EL; in test [1]) were 666 nM and 1300 nM, respectively. On to `O=C(CCCCCOc1cc(F)cc(F)c1)C(=O)NCc1nnc(-c2ccc(OCc3ccccc3)cc2)o1` [Compound 100], for which the IC50 came out at 551 nM against Mouse EL and 1330 nM in test [1]. Regarding `O=C(CCCCCCc1ccccc1)C(=O)NCc1nnc(-c2ccc(OCc3ccccn3)cc2)o1` [Compound 88], the IC50 against Mouse EL was determined as 196 nM; in test [1], 178 nM. The matching figures for `O=C(CCCCCCc1ccccc1)C(=O)NCc1nnc(-c2ccc(NCc3cccnc3)cc2)o1` [Compound 124]: 2930 nM and 3610 nM. As for `O=C(CCCCCOc1ccc(F)cc1F)C(=O)NCc1nnc(-c2ccc(Oc3ccccc3)cc2)o1` [Compound 92], the IC50 on Mouse EL was determined as 911 nM; in test [1], 432 nM.

`Cn1ccnc1COc1ccc(-c2nnc(CNC(=O)C(=O)CCCCCCc3ccccc3)o2)cc1` [Compound 78]: the IC50 against Mouse EL came to 775 nM; in test [1], 944 nM.

In the case of `CN(Cc1ccccc1)c1ccc(-c2nnc(CNC(=O)C(=O)CCCCCCc3ccccc3)o2)cc1` [Compound 109], the IC50 on Mouse EL was found to be 317 nM; in test [1], 505 nM.

For `COc1cccc(OCCCCCC(=O)C(=O)NCc2nnc(-c3cccc(Oc4ccccc4)c3)o2)c1` [Compound 64], the values for the IC50 (against Mouse EL; in test [1]) were 9980 nM and 10900 nM, respectively. As to `CN(C)c1ccc(-c2nnc(CNC(=O)C(=O)CCCCCCc3ccccc3)o2)cc1` [Compound 24], the IC50 stood at 20700 nM against Mouse EL and 16600 nM in test [1]. Regarding `N#Cc1cccc(COc2ccc(-c3nnc(CNC(=O)C(=O)CCCCCCc4ccccc4)s3)cc2)c1` [Compound 144], the figures for the IC50 (at Mouse EL; in test [1]) were 249 nM and 421 nM, respectively.

Regarding `O=C(CCCCCCc1ccccc1)C(=O)NCc1nnc(-c2ccc(OCc3ccccc3)cc2)s1` [Compound 129], the IC50 on Mouse EL was determined as 264 nM; in test [1], 325 nM. For the molecule `O=C(CCCCCCc1ccncc1)C(=O)NCc1nnc(-c2ccccc2)o1` [Compound 42], the IC50 came to 2730 nM against Mouse EL and 4650 nM in test [1].

For `O=C(CCCCCCc1ccccc1)C(=O)NCc1nnc(-c2ccc(OCc3cccc(F)c3)cc2)s1` [Compound 128, N-((5-(4-((3-fluorobenzyl)oxy)phenyl)-1,3,4-thiadiazol-2-yl)methyl)-2-oxo-8-phenyloctanamide], the IC50 was determined as 87 nM against Mouse EL and 129 nM in test [1]. With `O=C(CCCCCCc1ccccc1)C(=O)NCc1nnc(-c2ccc(Oc3ncccn3)cc2)o1` [Compound 87], the results for the IC50 (against Mouse EL; in test [1]) were 708 nM and 1450 nM, respectively. For the molecule `COc1ccc(COc2ccc(-c3nnc(CNC(=O)C(=O)CCCCCCc4ccccc4)o3)cc2)cc1` [Compound 81], the IC50 against Mouse EL was 8340 nM; in test [1], 11500 nM. The matching figures for `O=C(CCCCCOc1cc(F)cc(F)c1)C(=O)NCc1nnc(-c2ccccc2)s1` [Compound 108]: 1170 nM and 626 nM. For `COc1ccc(C#CCCCC(=O)C(=O)NCc2nnc(-c3ccccc3)o2)cc1` [Compound 41], the values for the IC50 (at Mouse EL; in test [1]) were 24100 nM and 27200 nM, respectively. Regarding `O=C(CCCCCCc1ccccc1)C(=O)NCc1nnc(-c2ccc(F)c(F)c2)o1` [Compound 20], the IC50 at Mouse EL was determined as 552 nM; in test [1], 490 nM. `O=C(CCCCCNc1cccc(F)n1)C(=O)NCc1nnc(-c2ccccc2)o1` [Compound 171] gave a half-inhibitory concentration (IC50) in test [1] of 33000 nM. As for `O=C(CCCCCCc1ccccc1)C(=O)NCc1nnc(-c2ccc(OCc3cccc(Cl)c3)cc2)o1` [Compound 76], the IC50 against Mouse EL amounted to 1950 nM; in test [1] it was 3070 nM. Turning to `COc1ccccc1-c1nnc(CNC(=O)C(=O)CCCCCCc2ccccc2)o1` [Compound 6], in test [1], the midpoint of inhibition, the IC50, lay at 2650 nM.

For `O=C(CCCCCCc1ccccc1)C(=O)NCc1nnc(-c2ccc(Oc3ccccc3)cc2)s1` [Compound 130], the IC50 worked out at 80 nM against Mouse EL and 111 nM in test [1].

Regarding `O=C(CCCCCCc1cccc(F)c1)C(=O)NCc1nnc(-c2ccc3ccccc3c2)o1` [Compound 28], the IC50 is 127 nM at Mouse EL and 224 nM in test [1]. With `O=C(CCCCC#Cc1ccccc1)C(=O)NCc1nnc(-c2ccccc2)o1` [Compound 43], the values for the IC50 (against Mouse EL; in test [1]) were 2650 nM and 2410 nM, respectively. As to `O=C(CCCCCOc1c(F)cccc1F)C(=O)NCc1nnc(-c2ccc(Oc3ccccc3)cc2)o1` [Compound 93], the values for the IC50 (against Mouse EL; in test [1]) were 1480 nM and 3060 nM, respectively. `O=C(CCCCCOc1cccc(F)c1)C(=O)NCc1nnc(-c2ccc(Oc3ccccc3)cc2)o1` [Compound 55]: the IC50 is 384 nM against Mouse EL and 340 nM in test [1]. For `CC(=O)Nc1ccc(CCCCCCC(=O)C(=O)NCc2nnc(-c3ccc(OCc4cccc(F)c4)cc3)s2)cn1` [Compound 157], the results for the IC50 (against Mouse EL; in test [1]) were 1280 nM and 511 nM, respectively. As for `CN(c1ccc(Br)cc1)c1ccc(-c2nnc(CNC(=O)C(=O)CCCCCCc3ccccc3)o2)cc1` [Compound 75], the IC50 on Mouse EL is 11200 nM; in test [1], 11600 nM. As to `Cc1ncsc1CCCCCCC(=O)C(=O)NCc1nnc(-c2ccc(OCc3cccc(F)c3)cc2)s1` [Compound 154, N-((5-(4-((3-fluorobenzyl)oxy)phenyl)-1,3,4-thiadiazol-2-yl)methyl)-8-(4-methylthiazol-5-yl)-2-oxooctanamide], the IC50 was 47 nM at Mouse EL and 36 nM in test [1].

On to `O=C(CCCCCCc1ccccc1)C(=O)NCc1nnc(-c2ccc(OCc3ccnc(Cl)c3)cc2)s1` [Compound 173], for which the concentration for half-maximal inhibition (IC50) turned out to be 17 nM against Mouse EL and 37 nM in test [1]. The matching figures for `O=C(CCCCCCc1ccccc1)C(=O)NCc1nnc(-c2ccc(OCc3cccnc3)cc2)o1` [Compound 82]: 133 nM and 108 nM. In the case of `O=C(CCCCCCc1ccccc1)C(=O)NCc1nnc(-c2cccnc2)o1` [Compound 177], inhibition in test [1] was half-maximal at 5220 nM (IC50). `COC(=O)c1cccc(COc2ccc(-c3nnc(CNC(=O)C(=O)CCCCCCc4ccccc4)s3)cc2)c1` [Compound 137]: the IC50 against Mouse EL is 37 nM; in test [1], 93 nM. In test [1], `COc1cccc(-c2nnc(CNC(=O)C(=O)CCCCCCc3ccccc3)o2)c1` [Compound 3] came in with an IC50 of 1100 nM. Molecule `O=C(CCCCCCc1ccccc1)C(=O)NCc1nnc(-c2ccc3c(c2)OCO3)o1` [Compound 7] gave an IC50 in test [1] of 457 nM. The molecule `O=C(CCCCCCc1ccccc1)C(=O)NCc1nnc(-c2ccccc2Cl)o1` [Compound 5] had an IC50 in test [1] of 663 nM. In test [1], `O=C(CCCCCCc1ccccc1)C(=O)NCc1nnc(-c2ccccc2)[nH]1` [Compound 11] came in with an IC50 of 10400 nM. Consider `COc1ccc(-c2nnc(CNC(=O)C(=O)CCCCCCc3ccccc3)o2)cc1` [Compound 4], for which the IC50 in test [1] came to 640 nM.
